In ChEMBL document CHEMBL6092154, “Design, synthesis, and evaluation of a novel TRAIL-activated HDAC6 inhibitor for the treatment of pulmonary fibrosis” (Bioorg Med Chem, 2024):
pIC50: −log10 of the molar value. The source made the active and inactive calls. The rule behind the calls is not given here.

Legend:
[1] = target: Histone deacetylase 1 (Homo sapiens) (UniProt Q13547); assay: Inhibition of HDAC1 (unknown origin) at 1 uM incubated for 30 mins by fluorometric analysis
Fibroblast = assay: Antiproliferative activity against human primary fibroblasts assessed as inhibition of cell growth incubated for 24 to 48 hrs by CCK8 assay; type: functional, cell-based
Mus musculus [2] = assay: (§1) Anti-pulmonary fibrosis activity in bleomycin-induced idiopathic pulmonary fibrosis C57BL/6J mouse model assessed as decrease in lung damage by measuring decrease in inflammatory cell infiltration in lung at 25 to 50 mg/kg, ig administered daily via gavage and measured on day 14 by Sirius red staining based analysis; type: functional, organism-based; conditions: dose 25-50 mg/kg, time 14.0 day
Mus musculus [3] = assay: as §1, with “collagen deposition” for “inflammatory cell infiltration”; type: functional, organism-based; conditions: dose 25-50 mg/kg, time 14.0 day
[4] = target: T1, Protein deacetylase HDAC6 (Mus musculus) (UniProt Q9Z2V5); assay: In vivo inhibition of HDAC6 in bleomycin-induced idiopathic pulmonary fibrosis C57BL/6J mouse model assessed as increase in acetylated histone H4 level in lung at 25 mg/kg, ig administered via gavage and measured on day 14 by western blot analysis; type: functional, organism-based; conditions: time 14.0 day
T1 sequence (whole entry): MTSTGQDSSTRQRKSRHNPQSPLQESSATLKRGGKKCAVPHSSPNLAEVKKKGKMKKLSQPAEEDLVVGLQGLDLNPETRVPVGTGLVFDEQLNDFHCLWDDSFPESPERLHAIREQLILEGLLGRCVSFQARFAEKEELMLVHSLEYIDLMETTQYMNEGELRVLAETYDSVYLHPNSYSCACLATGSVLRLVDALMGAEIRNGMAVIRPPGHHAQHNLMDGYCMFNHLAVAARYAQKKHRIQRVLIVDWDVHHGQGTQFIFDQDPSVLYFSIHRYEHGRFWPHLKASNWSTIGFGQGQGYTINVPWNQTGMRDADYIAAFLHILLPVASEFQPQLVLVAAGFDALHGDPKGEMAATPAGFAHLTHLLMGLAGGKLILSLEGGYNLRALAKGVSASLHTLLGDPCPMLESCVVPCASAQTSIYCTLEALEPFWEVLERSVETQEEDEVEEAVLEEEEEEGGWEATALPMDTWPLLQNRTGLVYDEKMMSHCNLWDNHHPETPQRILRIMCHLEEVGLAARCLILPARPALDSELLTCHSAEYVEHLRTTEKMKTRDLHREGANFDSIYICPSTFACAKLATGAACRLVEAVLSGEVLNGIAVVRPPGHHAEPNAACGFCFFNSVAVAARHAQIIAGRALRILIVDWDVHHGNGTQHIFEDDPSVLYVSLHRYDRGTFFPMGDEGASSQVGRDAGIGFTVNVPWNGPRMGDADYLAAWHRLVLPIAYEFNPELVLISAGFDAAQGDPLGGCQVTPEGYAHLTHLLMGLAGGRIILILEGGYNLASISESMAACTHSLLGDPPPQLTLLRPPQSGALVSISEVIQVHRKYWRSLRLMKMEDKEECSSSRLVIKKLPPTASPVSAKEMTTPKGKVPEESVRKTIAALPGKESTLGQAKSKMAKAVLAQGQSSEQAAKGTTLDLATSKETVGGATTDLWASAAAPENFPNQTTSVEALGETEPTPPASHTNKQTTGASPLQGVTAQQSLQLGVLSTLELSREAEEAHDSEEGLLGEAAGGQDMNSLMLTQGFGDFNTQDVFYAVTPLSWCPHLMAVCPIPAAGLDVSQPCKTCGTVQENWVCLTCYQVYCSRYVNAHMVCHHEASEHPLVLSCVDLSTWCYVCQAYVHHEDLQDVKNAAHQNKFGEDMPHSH

[5] = target: T1, Protein deacetylase HDAC6 (Mus musculus); assay: In vivo inhibition of HDAC6 in bleomycin-induced idiopathic pulmonary fibrosis C57BL/6J mouse model assessed as increase in acetylated alpha-tubulin level in lung at 50 mg/kg, ig administered via gavage and measured on day 14 by western blot analysis; type: functional, organism-based; conditions: time 14.0 day
[6] = Toxicity against bleomycin-induced pulmonary fibrosis C57BL/6J mouse model assessed as effect on heart morphological changes at 25 to 50 mg/kg, ig administered daily via gavage and measured on day 14 by Hematoxylin-Eosin staining based analysis; type: organism-based; conditions: in vivo, po, 336 h, dose 25-50 mg/kg, time 14 day
[7] = Toxicity against bleomycin-induced pulmonary fibrosis C57BL/6J mouse model assessed as effect on spleen morphological changes at 25 to 50 mg/kg, ig administered daily via gavage and measured on day 14 by Hematoxylin-Eosin staining based analysis; type: organism-based; conditions: in vivo, po, 336 h, dose 25-50 mg/kg, time 14 day

Sequence of Histone deacetylase 1 (Homo sapiens) (Q13547 whole entry): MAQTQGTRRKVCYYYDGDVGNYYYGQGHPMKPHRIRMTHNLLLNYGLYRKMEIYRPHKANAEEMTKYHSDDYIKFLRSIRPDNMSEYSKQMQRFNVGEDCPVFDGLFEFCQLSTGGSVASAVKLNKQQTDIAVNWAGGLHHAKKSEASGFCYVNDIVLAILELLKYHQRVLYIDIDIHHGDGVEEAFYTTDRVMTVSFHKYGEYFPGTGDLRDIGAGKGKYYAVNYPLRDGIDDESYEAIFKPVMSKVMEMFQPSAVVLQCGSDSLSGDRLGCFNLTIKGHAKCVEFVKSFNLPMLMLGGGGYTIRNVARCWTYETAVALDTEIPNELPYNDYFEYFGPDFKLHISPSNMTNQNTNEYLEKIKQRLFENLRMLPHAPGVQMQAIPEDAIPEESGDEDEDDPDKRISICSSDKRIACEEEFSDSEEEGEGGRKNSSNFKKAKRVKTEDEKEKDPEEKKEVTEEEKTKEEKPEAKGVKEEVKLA

inhibition [1]: 56.1% | inhibition [4]: inactive
Compound: O=C(NO)c1ccc(CN2C(=O)C3=C(CCN(Cc4cccc(Cl)c4)C3)N3CCN=C23)cc1
pIC50 (Fibroblast): 4.53 | Activity (Mus musculus [2]): Active | Activity (Mus musculus [3]): Active | inhibition [5]: Active; Levels Lower Than The Positive Control, Acy-1215 | Activity [6]: Non-toxic | Activity [7]: Non-toxic
